Measured values from patent US20240158446A1, “CYCLIC COMPOUND HAVING SELECTIVE INHIBITORY ACTION ON KRAS OVER HRAS AND NRAS” (CHUGAI SEIYAKU KABUSHIKI KAISHA, priority 2021, published 2024).
Like-named read-outs stand apart in the source and are kept apart here. Where a SMILES comes first, the peptide text is derived from it. Bridges are numbered along the chain shown (N, C = ends). [ ]: non-standard residue; d: D form. The star is where a group is joined. hPhe(3-Cl-4-CF3) = N[C@@H](CCc1ccc(C(F)(F)F)c(Cl)c1)C(=O)O; NPrPhe(4-CF3) = CCCN[C@@H](Cc1ccc(C(F)(F)F)cc1)C(=O)O; NMeGly(cPent) = CN[C@H](C(=O)O)C1CCCC1; Pro(4,4-F2) = O=C(O)[C@@H]1CC(F)(F)CN1; Hyp = O=C(O)[C@@H]1C[C@@H](O)CN1; NMeD = CN[C@@H](CC(=O)O)C(=O)O; NMeL = CN[C@@H](CC(C)C)C(=O)O; Morpholide = C1CN(*)CCO1; NMeA = CN[C@@H](C)C(=O)O; Ac5c = NC1(C(=O)O)CCCC1; Aze = O=C(O)[C@@H]1CCN1; Ac4c = NC1(C(=O)O)CCC1; Sar = CNCC(=O)O

How the values were obtained:
[1] = molecular target: GDP-bound KRAS wild-type protein (Homo sapiens, UniProt P01116); assay: Binding to KRAS by surface plasmon resonance (SPR), Single Cycle Kinetics; settings: GDP-bound KRAS wild-type protein, read-out: KRAS KD
Chain of GDP-bound KRAS wild-type protein (P01116 whole entry): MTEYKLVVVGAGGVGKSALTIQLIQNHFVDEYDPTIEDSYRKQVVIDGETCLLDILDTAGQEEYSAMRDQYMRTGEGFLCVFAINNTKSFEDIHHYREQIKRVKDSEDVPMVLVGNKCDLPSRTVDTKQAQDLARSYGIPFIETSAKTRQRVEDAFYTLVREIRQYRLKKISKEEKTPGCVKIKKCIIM

[2] = molecular target: GDP-bound HRAS wild-type protein (Homo sapiens, UniProt P01112); assay: Binding to HRAS by surface plasmon resonance (SPR), Single Cycle Kinetics; settings: for HRAS/KRAS (ratio of KD value with respect to HRAS to KD value with respect to KRAS) / HRAS/KRAS (ratio of KD value for HRAS to KD value for KRAS): SPR, GDP-bound HRAS wild-type protein vs GDP-bound KRAS wild-type protein
Chain of GDP-bound HRAS wild-type protein (P01112 whole entry): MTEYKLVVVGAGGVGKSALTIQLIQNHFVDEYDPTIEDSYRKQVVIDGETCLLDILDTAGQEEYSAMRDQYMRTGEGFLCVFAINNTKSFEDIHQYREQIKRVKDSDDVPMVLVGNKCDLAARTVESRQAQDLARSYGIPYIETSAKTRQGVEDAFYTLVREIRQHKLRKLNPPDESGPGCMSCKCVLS

[3] = molecular target: GDP-bound NRAS wild-type protein (Homo sapiens, UniProt P01111); assay: Binding to NRAS by surface plasmon resonance (SPR), Single Cycle Kinetics; settings: for NRAS/KRAS (ratio of KD value with respect to NRAS to KD value with respect to KRAS) / NRAS/KRAS (ratio of KD value for NRAS to KD value for KRAS): SPR, GDP-bound NRAS wild-type protein vs GDP-bound KRAS wild-type protein
Chain of GDP-bound NRAS wild-type protein (P01111 whole entry): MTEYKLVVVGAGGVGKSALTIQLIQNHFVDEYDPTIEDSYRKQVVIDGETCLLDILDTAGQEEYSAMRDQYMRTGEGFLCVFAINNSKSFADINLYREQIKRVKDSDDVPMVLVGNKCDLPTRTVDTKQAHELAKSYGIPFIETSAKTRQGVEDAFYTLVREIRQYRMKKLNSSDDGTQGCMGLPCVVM

[4] = SPR Single Cycle Kinetics, 1:1 binding model

| Kd [1, 4] [nM] | Kd ([1]; SPR, Single Cycle Kinetics) [nM] | Structure (SMILES) | HRAS/KRAS (ratio of KD value with respect to HRAS to KD value with respect to KRAS) [2] | NRAS/KRAS (ratio of KD value with respect to NRAS to KD value with respect to KRAS) [3] | HRAS/KRAS (ratio of KD value for HRAS to KD value for KRAS) [2] | NRAS/KRAS (ratio of KD value for NRAS to KD value for KRAS) [3] | HRAS/KRAS (ratio of KD value with respect to GDP-bound HRAS wild-type protein to KD value with respect to KRAS) ([2]; SPR KD ratio HRAS/KRAS, class symbols) | NRAS/KRAS (ratio of KD value with respect to GDP-bound NRAS wild-type protein to KD value with respect to KRAS) ([3]; SPR KD ratio NRAS/KRAS, class symbols) |
| --- | --- | --- | --- | --- | --- | --- | --- | --- |
|  | 0.092 | CCO[C@@H]1C[C@H]2C(=O)NC3(CC(C)(C)C3)C(=O)N(C)[C@@H](C(CC)CC)C(=O)N(C)[C@H](C(=O)N(C)C)CC(=O)N(C)[C@H]3CCCCCc4ccc(cc4)C[C@@H](C(=O)N(C)CC(=O)N[C@@H](CCc4ccc(C(F)(F)F)c(OC)c4)C(=O)N2C1)N1CC/C=C\C[C@@H](C1=O)N(C)C(=O)CN(C)C(=O)[C@H]([C@@H](C)CC)NC3=O [PP3035] |  |  | A (a compound having 10 or more and less than 20 is denoted as A) | AA (a compound having 20 or more is denoted as AA) |  |  |
| 0.12 |  | CCCC[C@H]1C(=O)N[C@@H]([C@@H](C)CC)C(=O)N(C)CC(=O)N(C)[C@H]2C/C=C\CCN(C2=O)[C@@H](Cc2ccc(C(F)(F)F)cc2)C(=O)N(C)CC(=O)N[C@@H](CCc2cc(F)c(C(F)(F)F)c(F)c2)C(=O)N2C[C@H](OCC)C[C@H]2C(=O)NC2(CC(C)(C)C2)C(=O)N(C)[C@@H](C2CCCC2)C(=O)N(C)[C@H](C(=O)N(C)CC)CC(=O)N1C [PP2806] |  |  |  |  | A (a compound having 10 or more and less than 20 is denoted as A) | A (a compound having 10 or more and less than 20 is denoted as A) |
|  | 0.068 | CCO[C@H]1CCN2C(=O)[C@H](CCc3cc(F)c(C(F)(F)F)c(F)c3)NC(=O)CN(C)C(=O)[C@H](Cc3ccc(C(F)(F)F)cc3)N3CCCC[C@@H](C3=O)N(C)C(=O)CN(C)C(=O)[C@H]([C@@H](C)CC)NC(=O)[C@H](CC(C)C)N(C)C(=O)C[C@@H](C(=O)N3CCOCC3)N(C)C(=O)[C@H](C3CCCC3)N(C)C(=O)C3(CCC3)NC(=O)[C@H]12 [PP1076] |  |  | B (a compound having 3 or more and less than 10 is denoted as B) | B (a compound having 3 or more and less than 10 is denoted as B) |  |  |
|  | 0.38 | CCCOC[C@H]1C(=O)N[C@@H]([C@@H](C)CC)C(=O)N(C)CC(=O)N(C)[C@H]2C/C=C\CCN(C2=O)[C@@H](Cc2ccc(C)cc2)C(=O)N(C)CC(=O)N[C@@H](CCc2cc(F)c(C(F)(F)F)c(F)c2)C(=O)N2C[C@H](CCC)C[C@H]2C(=O)NC2(CCCC2)C(=O)N(C)[C@@H](C2CCCC2)C(=O)N(C)[C@H](C(=O)N(C)C)CC(=O)N1C [PP2229] |  |  | A (a compound having 10 or more and less than 20 is denoted as A) | A (a compound having 10 or more and less than 20 is denoted as A) |  |  |
|  | 0.18 | CCC[C@H]1C(=O)N[C@@H]([C@@H](C)CC)C(=O)N(C)CC(=O)N(C)[C@H]2C/C=C\CCN(C2=O)[C@@H](Cc2ccc(C(F)(F)F)cc2)C(=O)N(C)CC(=O)N[C@@H](CCc2ccc(C(F)(F)F)c(Cl)c2)C(=O)N2C[C@H](OCC)C[C@H]2C(=O)NC2(CC(C)(C)C2)C(=O)N(C)[C@@H]([C@@H](C)CC)C(=O)N(C)[C@H](C(=O)N(C)C)CC(=O)N1C [PP2973] |  |  | A (a compound having 10 or more and less than 20 is denoted as A) | A (a compound having 10 or more and less than 20 is denoted as A) |  |  |
|  | 0.27 | CCO[C@@H]1C[C@H]2C(=O)NC3(CC(C)(C)C3)C(=O)N(C)[C@@H](C(CC)CC)C(=O)N(C)[C@H](C(=O)N(C)C)CC(=O)N(C)[C@@H](CC(C)C)C(=O)N[C@@H]([C@@H](C)CC)C(=O)N(C)CC(=O)N(C)[C@H]3C/C=C\CCN(C3=O)[C@@H](Cc3ccc(C(F)(F)F)cc3)C(=O)N(C)CC(=O)N[C@@H](CCc3ccc(C(F)(F)F)c(Cl)c3)C(=O)N2C1 [PP2132] |  |  | A (a compound having 10 or more and less than 20 is denoted as A) | AA (a compound having 20 or more is denoted as AA) |  |  |

Continued, compound first:

| Structure (SMILES) | Kd [1, 4] [nM] | Kd ([1]; SPR, Single Cycle Kinetics) [nM] | HRAS/KRAS (ratio of KD value with respect to HRAS to KD value with respect to KRAS) [2] | NRAS/KRAS (ratio of KD value with respect to NRAS to KD value with respect to KRAS) [3] | HRAS/KRAS (ratio of KD value for HRAS to KD value for KRAS) [2] | NRAS/KRAS (ratio of KD value for NRAS to KD value for KRAS) [3] | HRAS/KRAS (ratio of KD value with respect to GDP-bound HRAS wild-type protein to KD value with respect to KRAS) ([2]; SPR KD ratio HRAS/KRAS, class symbols) | NRAS/KRAS (ratio of KD value with respect to GDP-bound NRAS wild-type protein to KD value with respect to KRAS) ([3]; SPR KD ratio NRAS/KRAS, class symbols) |
| --- | --- | --- | --- | --- | --- | --- | --- | --- |
| CCO[C@@H]1C[C@H]2C(=O)NC3(CCC3)C(=O)N(C)[C@@H](C3CCCC3)C(=O)N(C)[C@H](C(=O)N3CCOCC3)CC(=O)N(C)[C@@H](C)C(=O)N[C@@H]([C@@H](C)CC)C(=O)N(C)CC(=O)N(C)[C@H]3CCCCCN(C3=O)[C@@H](Cc3ccc(C(F)(F)F)cc3)C(=O)N(C)CC(=O)N[C@@H](CCc3cc(F)c(C(F)(F)F)c(F)c3)C(=O)N2C1 [PP0474] | 0.63 |  | B (a compound having 3 or more and less than 10 is denoted as B) | B (a compound having 3 or more and less than 10 is denoted as B) |  |  |  |  |
| CCO[C@@H]1C[C@H]2C(=O)NC3(CCCC3)C(=O)N(C)[C@@H](C3CCCC3)C(=O)N(C)[C@H](C(=O)N(C)C)CC(=O)N(C)[C@@H](CC(C)C)C(=O)N[C@@H]([C@@H](C)CC)C(=O)N(C)CC(=O)N(C)[C@H]3CCCCCN(C3=O)[C@@H](Cc3ccc(C(F)(F)F)cc3)C(=O)N(C)CC(=O)N[C@@H](CCc3cc(F)c(C(F)(F)F)c(F)c3)C(=O)N2C1 [PP0468] | 0.8 |  | B (a compound having 3 or more and less than 10 is denoted as B) | B (a compound having 3 or more and less than 10 is denoted as B) |  |  |  |  |
| CCO[C@@H]1C[C@H]2C(=O)NC3(CCC3)C(=O)N(C)[C@@H](C3CCCC3)C(=O)N(CCC3CCCC3)[C@H](C(=O)N3CCOCC3)CC(=O)N(C)[C@@H](CC)C(=O)N[C@@H]([C@@H](C)CC)C(=O)N(C)CC(=O)N(C)[C@H]3C/C=C\CCN(C3=O)[C@@H](Cc3ccc(C(F)(F)F)cc3)C(=O)N(C)CC(=O)N[C@@H](CCc3cc(F)c(C(F)(F)F)c(F)c3)C(=O)N2C1 [PP0981] |  | 11 |  |  | A (a compound having 10 or more and less than 20 is denoted as A) | AA (a compound having 20 or more is denoted as AA) |  |  |
| CC[C@H](C)[C@@H]1NC(=O)[C@H](CC(C)C)N(C)C(=O)C[C@@H](C(=O)N2CCC2)N(C)C(=O)[C@H](C2CCCC2)N(C)C(=O)C2(CCCC2)NC(=O)[C@@H]2CCCN2C(=O)[C@H](CCc2cc(F)c(C(F)(F)F)c(F)c2)NC(=O)CN(C)C(=O)[C@H](Cc2ccc(C(F)(F)F)cc2)N2CCCC[C@@H](C2=O)N(C)C(=O)CN(C)C1=O [PP0570] | 0.046 |  | B (a compound having 3 or more and less than 10 is denoted as B) | B (a compound having 3 or more and less than 10 is denoted as B) |  |  |  |  |
| CC[C@H](C)[C@@H]1NC(=O)[C@H](CC(C)C)N(C)C(=O)C[C@@H](C(=O)N2CCOCC2)N(C)C(=O)[C@H](C2CCCC2)N(C)C(=O)C2(CCC2)NC(=O)[C@@H]2CCCN2C(=O)[C@H](CCc2ccc(C(F)(F)F)c(Cl)c2)NC(=O)CN(C)C(=O)[C@H](Cc2ccc(F)cc2)N2CCCCC[C@@H](C2=O)N(C)C(=O)CN(C)C1=O [PP0967] |  | 0.33 |  |  | B (a compound having 3 or more and less than 10 is denoted as B) | B (a compound having 3 or more and less than 10 is denoted as B) |  |  |
| CCCN1C(=O)[C@@H]2CCN2C(=O)[C@H](C)N(C)C(=O)[C@H]([C@@H](C)CC)NC(=O)[C@H](CC(C)C)N(C)C(=O)C[C@@H](C(=O)N2CCOCC2)NC(=O)[C@H](C2CCCC2)N(C)C(=O)C2(CCC2)NC(=O)[C@@H]2CCCN2C(=O)[C@H](CCc2ccc(C(F)(F)F)c(Cl)c2)NC(=O)CN(C)C(=O)[C@@H]1Cc1ccc(C(F)(F)F)cc1 [PP0344] ([NMeL]I[NMeA][Aze][NPrPhe(4-CF3)][Sar][hPhe(3-Cl-4-CF3)]P[Ac4c][NMeGly(cPent)]D-Morpholide; lactam N-11) | 1.1 |  |  |  | B (a compound having 3 or more and less than 10 is denoted as B) | C (A compound having a KD ratio of 0.1 or more and less than 3 is denoted as C) |  |  |
| CCCN1C(=O)CN(C)C(=O)CNC(=O)[C@H]([C@@H](C)CC)NC(=O)[C@H](CC(C)C)N(C)C(=O)C[C@@H](C(=O)N(C)C)N(C)C(=O)[C@H](C2CCCC2)N(C)C(=O)C2(CCCC2)NC(=O)[C@@H]2CC(F)(F)CN2C(=O)[C@H](CCc2ccc(C(F)(F)F)c(Cl)c2)NC(=O)CN(C)C(=O)[C@@H]1Cc1ccc(C(F)(F)F)cc1 [PP0419] ([NMeL]IG[Sar][NPrPhe(4-CF3)][Sar][hPhe(3-Cl-4-CF3)][Pro(4,4-F2)][Ac5c][NMeGly(cPent)][NMeD]-NMe2; lactam N-11) | 0.067 |  | C (A compound having a KD ratio of 0.1 or more and less than 3 is denoted as C) | B (a compound having 3 or more and less than 10 is denoted as B) |  |  |  |  |
| CCCN1C(=O)[C@@H]2CCN2C(=O)CN(C)C(=O)[C@H]([C@@H](C)CC)NC(=O)[C@H](CC(C)C)N(C)C(=O)C[C@@H](C(=O)N2CCOCC2)N(C)C(=O)[C@H](C2CCCC2)N(C)C(=O)C2(CCCC2)NC(=O)[C@@H]2C[C@@H](OCC)CN2C(=O)[C@H](CCc2ccc(C(F)(F)F)c(Cl)c2)NC(=O)CN(C)C(=O)[C@@H]1Cc1ccc(C(F)(F)F)cc1 [PP0410] ([NMeL]I[Sar][Aze][NPrPhe(4-CF3)][Sar][hPhe(3-Cl-4-CF3)][Hyp](Et)[Ac5c][NMeGly(cPent)][NMeD]-Morpholide; lactam N-11) | 0.058 |  | B (a compound having 3 or more and less than 10 is denoted as B) | C (A compound having a KD ratio of 0.1 or more and less than 3 is denoted as C) |  |  |  |  |
